Legend:
[1] = in vivo; cited from earlier work
[2] = molecular target: human PrCP (Homo sapiens (Human), UniProt P42785); assay: biochemical
Protocol: The assay was performed using a Hamilton Star liquid handling workstation. The assay employed the internally quenched fluorescent substrate (1S)-1-carboxy-5-[(2,4-dinitrophenyl)amino]pentyl N-[(7-methoxy-2-oxo-2H-chromen-4-yl)acetyl]-L-alanyl-L-prolinate prepared in house.
The assay also contained 2% DMSO used to solubilize the substrate and inhibitor. Inhibitors were prepared in 100% DMSO and serial diluted (in 100% DMSO) to generate 11 point titration curves. Either 39 uL of human or mouse PrCP enzyme was added to the wells of the assay plate, followed by a 1 uL addition of the serially diluted inhibitor and mixed three times using a 30 uL mix volume. The reaction was initiated by the addition of 10 uL substrate and mixed three times using a 30 uL mix volume. […] IC50 values were calculated by comparing the resulting rates of reaction of the inhibited and control initial velocities.
The enzymes were diluted in a mixture of 10 mM NaOAc (pH 5.5)/100 mM NaCl buffer containing 25 ug/mL bovine serum albumin that had been warmed to 37° C. in a water bath. The PrCP inhibitor test compounds were plated in 100% DMSO with a highest concentration of 500 uM. There were 12 dilution points for each compound tested including a blank with DMSO only. […]

[3] = tested on: obese, leptin deficient mice; conditions: systemic administration to obese; cited from earlier work
[4] = tested on: rats; conditions: intracerebroventricular administration to rats; cited from earlier work

Chain of human PrCP (P42785 46-496): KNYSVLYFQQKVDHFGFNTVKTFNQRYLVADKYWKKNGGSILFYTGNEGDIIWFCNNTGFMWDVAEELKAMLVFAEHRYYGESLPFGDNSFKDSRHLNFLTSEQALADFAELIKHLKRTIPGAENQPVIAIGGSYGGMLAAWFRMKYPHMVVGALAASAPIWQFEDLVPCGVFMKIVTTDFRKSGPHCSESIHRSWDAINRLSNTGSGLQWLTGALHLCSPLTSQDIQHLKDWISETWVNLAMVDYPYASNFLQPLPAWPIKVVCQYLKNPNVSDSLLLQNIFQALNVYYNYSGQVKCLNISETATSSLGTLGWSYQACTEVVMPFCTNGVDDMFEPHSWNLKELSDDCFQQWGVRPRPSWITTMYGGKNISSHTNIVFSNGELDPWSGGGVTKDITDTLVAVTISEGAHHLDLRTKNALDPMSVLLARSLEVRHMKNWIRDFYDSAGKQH

Row | Molecule | weight loss, of body weight for drug compared to placebo [1] | also measured
1 | CCN[C@@H](C)Cc1cccc(C(F)(F)F)c1 [dexfenfluramine] | 5%-10% | 
2 | O=C(NC(c1ccc(F)cc1)c1ccc(F)cc1)C1CCC(N2CCOCC2)CC1c1ccc(F)cc1 (single isomer, unassigned) [Example 4, N-[bis(4-fluorophenyl)methyl]-2-(4-fluorophenyl)-4-(morpholin-4-yl)cyclohexanecarboxamide] |  | IC50 [2]: 2.1 nM
3 | CCCCCCCCCCC[C@@H](C[C@@H]1OC(=O)[C@H]1CCCCCC)OC(=O)[C@H](CC(C)C)NC=O [orlistat] | 5%-10% | 
4 | t-butyl carbamate-prolyl prolinal [BPP] |  | overnight food intake [3]: suppression of overnight food intake; overnight food intake [4]: suppression of overnight food intake
5 | CC(C)(N)Cc1ccccc1 [phentermine] | 5%-10% | 
6 | CC(C)CC(N(C)C)C1(c2ccc(Cl)cc2)CCC1 (stereo not shown) [sibutramine] | 5%-10% | 
